# Results taken from the kinase profiling compilation of Christmann-Franck et al. (2016).
# Tests used:
# Assay in all cases: KINOMEscan competition binding
# Details in all cases: compound 10.0 µM
# [1] = molecular target: JAK2 JH1 catalytic (human) (UniProt O60674)
# [2] = molecular target: MARK1 (human) (UniProt Q9P0L2)
# [3] = molecular target: RIPK1 (human) (UniProt Q13546)
# [4] = molecular target: MAPK1 (human) (UniProt P28482)
# [5] = molecular target: CAMK2B (human) (UniProt Q13554)
# [6] = molecular target: PHKG1 (human) (UniProt Q16816)
# [7] = molecular target: FGFR2 (human) (UniProt P21802)
# [8] = molecular target: EIF2AK2 (human) (UniProt P19525)
# Chain of EIF2AK2 (human) (P19525 whole entry, looked up): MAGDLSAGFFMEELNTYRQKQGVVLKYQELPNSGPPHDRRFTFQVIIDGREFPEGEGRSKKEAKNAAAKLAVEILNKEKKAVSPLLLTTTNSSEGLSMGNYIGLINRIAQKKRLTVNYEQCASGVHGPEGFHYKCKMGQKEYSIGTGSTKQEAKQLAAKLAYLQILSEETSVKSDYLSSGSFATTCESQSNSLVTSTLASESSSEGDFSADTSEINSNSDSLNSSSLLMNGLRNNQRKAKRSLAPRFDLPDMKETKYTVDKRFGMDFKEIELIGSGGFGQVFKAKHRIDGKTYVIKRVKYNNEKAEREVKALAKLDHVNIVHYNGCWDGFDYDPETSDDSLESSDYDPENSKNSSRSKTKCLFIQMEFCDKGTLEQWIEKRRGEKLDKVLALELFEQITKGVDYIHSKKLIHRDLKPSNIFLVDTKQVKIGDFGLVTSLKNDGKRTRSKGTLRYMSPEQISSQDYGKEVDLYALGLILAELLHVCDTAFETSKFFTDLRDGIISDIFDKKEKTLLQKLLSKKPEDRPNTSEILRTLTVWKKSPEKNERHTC
# [9] = molecular target: FES (human) (UniProt P07332)
# [10] = molecular target: CAMK2G (human) (UniProt Q13555)
# [11] = molecular target: DAPK3 (human) (UniProt O43293)
# Chain of DAPK3 (human) (O43293 whole entry, looked up): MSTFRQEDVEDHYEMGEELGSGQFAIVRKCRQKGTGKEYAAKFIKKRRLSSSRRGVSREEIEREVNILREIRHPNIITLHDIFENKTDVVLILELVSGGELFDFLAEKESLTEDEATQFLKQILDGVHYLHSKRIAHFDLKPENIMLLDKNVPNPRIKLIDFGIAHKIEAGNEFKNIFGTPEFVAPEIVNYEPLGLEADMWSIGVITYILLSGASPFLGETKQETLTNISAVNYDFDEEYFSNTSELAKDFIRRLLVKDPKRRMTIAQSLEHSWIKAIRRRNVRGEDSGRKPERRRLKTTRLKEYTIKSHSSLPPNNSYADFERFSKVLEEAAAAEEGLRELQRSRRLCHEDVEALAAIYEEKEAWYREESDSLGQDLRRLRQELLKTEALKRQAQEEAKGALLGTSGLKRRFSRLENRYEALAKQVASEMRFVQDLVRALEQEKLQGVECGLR
# [12] = molecular target: STK17A (human) (UniProt Q9UEE5)
# Chain of STK17A (human) (Q9UEE5 whole entry, looked up): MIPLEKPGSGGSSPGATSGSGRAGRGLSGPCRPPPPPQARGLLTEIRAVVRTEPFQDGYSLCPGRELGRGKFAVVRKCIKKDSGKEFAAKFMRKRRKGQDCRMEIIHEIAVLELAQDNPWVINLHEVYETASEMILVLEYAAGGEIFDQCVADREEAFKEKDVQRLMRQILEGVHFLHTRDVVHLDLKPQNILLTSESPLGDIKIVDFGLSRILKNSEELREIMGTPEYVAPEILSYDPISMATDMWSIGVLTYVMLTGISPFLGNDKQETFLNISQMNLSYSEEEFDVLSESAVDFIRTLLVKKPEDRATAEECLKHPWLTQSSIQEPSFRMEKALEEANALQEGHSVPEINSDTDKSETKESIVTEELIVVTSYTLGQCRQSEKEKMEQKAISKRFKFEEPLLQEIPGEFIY
# [13] = molecular target: STK38L (human) (UniProt Q9Y2H1)
# [14] = molecular target: MST4 (human) (UniProt Q9P289)
# [15] = molecular target: AURKA (human) (UniProt O14965)
# [16] = molecular target: PIK3CD (human) (UniProt O00329)
# Chain of PIK3CD (human) (O00329 whole entry, looked up): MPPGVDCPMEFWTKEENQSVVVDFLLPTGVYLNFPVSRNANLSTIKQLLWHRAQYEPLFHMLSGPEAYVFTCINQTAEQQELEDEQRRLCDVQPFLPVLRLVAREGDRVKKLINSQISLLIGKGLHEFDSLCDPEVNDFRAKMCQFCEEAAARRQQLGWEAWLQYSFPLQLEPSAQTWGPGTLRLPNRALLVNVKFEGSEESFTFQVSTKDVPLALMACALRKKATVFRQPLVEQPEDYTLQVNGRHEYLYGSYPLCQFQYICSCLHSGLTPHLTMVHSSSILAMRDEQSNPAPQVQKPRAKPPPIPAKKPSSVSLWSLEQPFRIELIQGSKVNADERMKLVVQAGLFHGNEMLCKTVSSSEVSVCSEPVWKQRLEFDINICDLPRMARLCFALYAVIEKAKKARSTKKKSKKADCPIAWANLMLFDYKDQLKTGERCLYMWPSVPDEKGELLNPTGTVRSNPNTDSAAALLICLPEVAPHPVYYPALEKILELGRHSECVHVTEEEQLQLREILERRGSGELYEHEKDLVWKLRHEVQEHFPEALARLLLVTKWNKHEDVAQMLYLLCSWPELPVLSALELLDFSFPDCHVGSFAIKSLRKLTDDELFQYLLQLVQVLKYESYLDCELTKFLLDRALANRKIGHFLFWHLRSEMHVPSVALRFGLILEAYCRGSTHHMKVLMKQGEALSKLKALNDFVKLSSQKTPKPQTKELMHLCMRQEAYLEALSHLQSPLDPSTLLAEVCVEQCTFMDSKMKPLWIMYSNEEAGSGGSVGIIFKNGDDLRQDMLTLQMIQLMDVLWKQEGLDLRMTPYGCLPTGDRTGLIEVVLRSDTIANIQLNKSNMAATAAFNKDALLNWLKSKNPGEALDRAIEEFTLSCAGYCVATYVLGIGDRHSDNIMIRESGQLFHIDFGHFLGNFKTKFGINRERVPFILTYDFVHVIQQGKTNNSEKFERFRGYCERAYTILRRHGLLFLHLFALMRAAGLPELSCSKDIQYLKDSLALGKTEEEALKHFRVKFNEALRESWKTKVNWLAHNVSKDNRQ
# [17] = molecular target: LCK (human) (UniProt P06239)
# [18] = molecular target: PRKX (human) (UniProt P51817)
# [19] = molecular target: MAP3K3 (human) (UniProt Q99759)
# [20] = molecular target: GAK (human) (UniProt O14976)
# [21] = molecular target: BTK (human) (UniProt Q06187)
# [22] = molecular target: MAP2K4 (human) (UniProt P45985)
# [23] = molecular target: PRKAA2 (human) (UniProt P54646)
# [24] = molecular target: ADCK4 (human) (UniProt Q96D53)
# [25] = molecular target: MYO3B (human) (UniProt Q8WXR4)
# [26] = molecular target: RIOK3 (human) (UniProt O14730)
# [27] = molecular target: KIT (human) (UniProt P10721)
# Chain of KIT (human) (P10721 whole entry, looked up): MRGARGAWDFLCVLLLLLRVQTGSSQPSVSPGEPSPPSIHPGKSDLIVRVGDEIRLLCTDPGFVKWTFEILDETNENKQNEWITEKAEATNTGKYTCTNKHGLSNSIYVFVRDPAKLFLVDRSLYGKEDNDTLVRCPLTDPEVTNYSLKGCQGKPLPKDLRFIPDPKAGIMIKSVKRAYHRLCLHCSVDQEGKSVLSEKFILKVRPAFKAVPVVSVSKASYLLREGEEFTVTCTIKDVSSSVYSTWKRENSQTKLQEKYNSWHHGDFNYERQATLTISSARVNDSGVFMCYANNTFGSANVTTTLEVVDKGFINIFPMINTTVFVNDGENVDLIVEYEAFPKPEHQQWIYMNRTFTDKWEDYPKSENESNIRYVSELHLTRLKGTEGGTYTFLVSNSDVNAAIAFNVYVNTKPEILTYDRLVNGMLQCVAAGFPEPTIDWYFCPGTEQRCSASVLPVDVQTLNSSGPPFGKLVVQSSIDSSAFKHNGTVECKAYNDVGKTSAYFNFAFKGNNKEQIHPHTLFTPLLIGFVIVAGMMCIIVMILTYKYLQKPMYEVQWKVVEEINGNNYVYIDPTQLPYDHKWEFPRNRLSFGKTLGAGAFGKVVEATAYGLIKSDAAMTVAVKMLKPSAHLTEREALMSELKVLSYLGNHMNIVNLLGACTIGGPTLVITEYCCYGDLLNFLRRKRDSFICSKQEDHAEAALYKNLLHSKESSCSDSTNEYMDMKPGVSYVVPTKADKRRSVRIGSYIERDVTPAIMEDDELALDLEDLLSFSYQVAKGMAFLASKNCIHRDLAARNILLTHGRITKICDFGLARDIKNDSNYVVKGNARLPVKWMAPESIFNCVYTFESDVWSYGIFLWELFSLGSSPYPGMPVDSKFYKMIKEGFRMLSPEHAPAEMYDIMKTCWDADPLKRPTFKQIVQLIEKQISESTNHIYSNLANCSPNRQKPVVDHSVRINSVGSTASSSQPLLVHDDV
# [28] = molecular target: ACVR2A (human) (UniProt P27037)
# Chain of ACVR2A (human) (P27037 whole entry, looked up): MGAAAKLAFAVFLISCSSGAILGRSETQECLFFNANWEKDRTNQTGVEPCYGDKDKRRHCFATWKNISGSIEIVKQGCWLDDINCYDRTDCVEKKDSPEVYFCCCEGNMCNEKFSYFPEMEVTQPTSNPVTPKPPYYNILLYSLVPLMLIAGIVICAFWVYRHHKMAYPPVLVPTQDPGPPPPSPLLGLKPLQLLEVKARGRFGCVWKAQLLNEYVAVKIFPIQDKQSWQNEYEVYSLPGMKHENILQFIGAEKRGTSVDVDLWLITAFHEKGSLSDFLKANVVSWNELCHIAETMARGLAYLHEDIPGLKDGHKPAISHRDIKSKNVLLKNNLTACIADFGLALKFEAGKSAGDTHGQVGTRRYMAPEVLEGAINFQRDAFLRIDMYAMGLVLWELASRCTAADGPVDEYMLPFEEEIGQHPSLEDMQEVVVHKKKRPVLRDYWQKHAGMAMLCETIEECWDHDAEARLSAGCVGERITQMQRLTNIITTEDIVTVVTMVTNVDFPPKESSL
# [29] = molecular target: CDK15 (human) (UniProt Q96Q40)
# [30] = molecular target: EPHA1 (human) (UniProt P21709)
# [31] = molecular target: MAP2K3 (human) (UniProt P46734)
# [32] = molecular target: CAMK4 (human) (UniProt Q16566)
# [33] = molecular target: MINK1 (human) (UniProt Q8N4C8)
# [34] = molecular target: GSK3A (human) (UniProt P49840)
# [35] = molecular target: DCLK1 (human) (UniProt O15075)
# [36] = molecular target: GRK7 (human) (UniProt Q8WTQ7)
# [37] = molecular target: MAST1 (human) (UniProt Q9Y2H9)
# [38] = molecular target: CDKL3 (human) (UniProt Q8IVW4)
# Chain of MAPK1 (human) (P28482 whole entry, looked up): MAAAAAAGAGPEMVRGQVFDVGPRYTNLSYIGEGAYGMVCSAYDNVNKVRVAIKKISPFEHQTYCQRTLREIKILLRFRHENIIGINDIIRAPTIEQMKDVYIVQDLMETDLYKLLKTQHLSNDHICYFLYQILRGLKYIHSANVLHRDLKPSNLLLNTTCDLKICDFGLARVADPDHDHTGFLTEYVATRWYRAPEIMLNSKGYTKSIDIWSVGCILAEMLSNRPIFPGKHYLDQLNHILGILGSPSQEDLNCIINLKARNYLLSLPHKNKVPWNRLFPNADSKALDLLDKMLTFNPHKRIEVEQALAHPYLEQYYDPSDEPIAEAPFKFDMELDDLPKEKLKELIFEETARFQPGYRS
# Chain of CAMK2B (human) (Q13554 whole entry, looked up): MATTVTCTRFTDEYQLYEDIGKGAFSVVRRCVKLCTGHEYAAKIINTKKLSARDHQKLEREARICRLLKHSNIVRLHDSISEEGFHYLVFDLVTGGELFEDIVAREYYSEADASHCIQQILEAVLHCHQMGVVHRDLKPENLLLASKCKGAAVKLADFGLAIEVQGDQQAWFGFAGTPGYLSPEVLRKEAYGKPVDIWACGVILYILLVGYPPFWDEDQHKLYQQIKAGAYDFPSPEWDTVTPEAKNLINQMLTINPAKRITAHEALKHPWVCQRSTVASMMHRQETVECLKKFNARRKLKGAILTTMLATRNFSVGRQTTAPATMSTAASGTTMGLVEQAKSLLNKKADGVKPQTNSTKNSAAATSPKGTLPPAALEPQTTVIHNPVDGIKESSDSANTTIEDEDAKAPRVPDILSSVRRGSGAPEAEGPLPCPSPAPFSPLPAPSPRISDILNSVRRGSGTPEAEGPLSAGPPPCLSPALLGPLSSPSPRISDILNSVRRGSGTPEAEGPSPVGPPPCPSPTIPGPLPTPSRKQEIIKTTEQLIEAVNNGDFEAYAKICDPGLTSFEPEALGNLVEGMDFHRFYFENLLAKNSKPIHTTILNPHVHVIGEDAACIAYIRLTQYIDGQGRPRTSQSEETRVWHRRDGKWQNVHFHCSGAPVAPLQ
"kinase still bound, per cent of control [1] [%]","kinase still bound, per cent of control [2] [%]","kinase still bound, per cent of control [3] [%]","kinase still bound, per cent of control [4] [%]","kinase still bound, per cent of control [5] [%]","kinase still bound, per cent of control [6] [%]","kinase still bound, per cent of control [7] [%]","kinase still bound, per cent of control [8] [%]","kinase still bound, per cent of control [9] [%]","kinase still bound, per cent of control [10] [%]","kinase still bound, per cent of control [11] [%]","kinase still bound, per cent of control [12] [%]","kinase still bound, per cent of control [13] [%]","kinase still bound, per cent of control [14] [%]","kinase still bound, per cent of control [15] [%]","kinase still bound, per cent of control [16] [%]","kinase still bound, per cent of control [17] [%]","kinase still bound, per cent of control [18] [%]","kinase still bound, per cent of control [19] [%]","kinase still bound, per cent of control [20] [%]",Structure (SMILES),also measured
1.6,26,100,22,100,100,25,100,12,100,100,100,15,19,2.7,100,0.3,100,4.8,2.5,CNC(=O)c1ccc(Nc2cc(Nc3ccccc3S(=O)(=O)C(C)C)c3cc[nH]c3n2)nc1,"kinase still bound, per cent of control [21]: 0.65%; kinase still bound, per cent of control [22]: 100%; kinase still bound, per cent of control [23]: 8.9%; kinase still bound, per cent of control [24]: 25%; kinase still bound, per cent of control [25]: 100%; kinase still bound, per cent of control [26]: 2.9%; kinase still bound, per cent of control [27]: 20%; kinase still bound, per cent of control [28]: 100%; kinase still bound, per cent of control [29]: 18%; kinase still bound, per cent of control [30]: 100%; kinase still bound, per cent of control [31]: 10%; kinase still bound, per cent of control [32]: 100%; kinase still bound, per cent of control [33]: 100%; kinase still bound, per cent of control [34]: 18%; kinase still bound, per cent of control [35]: 100%"
100,100,100,100,100,100,100,100,100,100,100,100,100,100,100,5.2,100,100,100,100,CS(=O)(=O)N1CCN(Cc2cc3nc(-c4cccc5[nH]ncc45)nc(N4CCOCC4)c3s2)CC1,"kinase still bound, per cent of control [36]: 100%; kinase still bound, per cent of control [21]: 100%; kinase still bound, per cent of control [22]: 100%; kinase still bound, per cent of control [37]: 100%; kinase still bound, per cent of control [38]: 100%; kinase still bound, per cent of control [23]: 100%; kinase still bound, per cent of control [24]: 100%; kinase still bound, per cent of control [25]: 100%; kinase still bound, per cent of control [26]: 100%; kinase still bound, per cent of control [27]: 100%; kinase still bound, per cent of control [28]: 100%; kinase still bound, per cent of control [29]: 100%; kinase still bound, per cent of control [30]: 100%; kinase still bound, per cent of control [31]: 100%; kinase still bound, per cent of control [32]: 100%; kinase still bound, per cent of control [33]: 100%; kinase still bound, per cent of control [34]: 100%; kinase still bound, per cent of control [35]: 100%"
100,100,100,100,100,100,2.6,100,100,100,100,100,100,11,100,100,3,100,3.8,100,CCN(CC)CCCCNc1ncc2c(n1)N(C)C(=O)N(c1c(Cl)c(OC)cc(OC)c1Cl)C2,"kinase still bound, per cent of control [36]: 100%; kinase still bound, per cent of control [21]: 100%; kinase still bound, per cent of control [22]: 100%; kinase still bound, per cent of control [37]: 100%; kinase still bound, per cent of control [38]: 100%; kinase still bound, per cent of control [23]: 100%; kinase still bound, per cent of control [24]: 100%; kinase still bound, per cent of control [25]: 100%; kinase still bound, per cent of control [26]: 100%; kinase still bound, per cent of control [27]: 6.7%; kinase still bound, per cent of control [28]: 100%; kinase still bound, per cent of control [29]: 100%; kinase still bound, per cent of control [30]: 100%; kinase still bound, per cent of control [31]: 100%; kinase still bound, per cent of control [32]: 100%; kinase still bound, per cent of control [33]: 100%; kinase still bound, per cent of control [34]: 100%; kinase still bound, per cent of control [35]: 100%"
100,100,100,100,100,100,1.9,100,4,100,100,100,100,100,100,100,0.2,100,5.8,100,C=CC(=O)Nc1ccc(CN(C(=O)Nc2c(Cl)c(OC)cc(OC)c2Cl)c2cc(Nc3ccc(N4CCN(C)CC4)cc3)ncn2)cc1,"kinase still bound, per cent of control [21]: 1.2%; kinase still bound, per cent of control [22]: 100%; kinase still bound, per cent of control [23]: 100%; kinase still bound, per cent of control [24]: 100%; kinase still bound, per cent of control [25]: 100%; kinase still bound, per cent of control [26]: 100%; kinase still bound, per cent of control [27]: 0.3%; kinase still bound, per cent of control [28]: 100%; kinase still bound, per cent of control [29]: 100%; kinase still bound, per cent of control [30]: 100%; kinase still bound, per cent of control [31]: 100%; kinase still bound, per cent of control [32]: 100%; kinase still bound, per cent of control [33]: 100%; kinase still bound, per cent of control [34]: 100%; kinase still bound, per cent of control [35]: 100%"
